Test systems include OVCAR-5; MDA-MB-231; NCI-H226; ACHN; SF-539; HCT-116; A498; OVCAR-3; MOLT-4; HOP-92; SK-OV-3; MDA-N; DU-145; HT-29; HCT-15; UACC-257; NCI-H23; RXF 393; NCI-H522; Hs-578T.
Experiment in all cases: NCI-60 cell line screen, 48 h

The structures appear in SMILES notation.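 Compound exposure: 48 hours, 5 concentrations, 96-well plates. Here, GI50 denotes the concentration required for 50% inhibition of growth.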 Active and inactive are the calls of the source. No stated cut-off is given here; in the data, active = GI50 up to about 1.1 µM and inactive = higher.

On to `CCOc1ccc(/C=C2/C(=O)N/C(=N\C(C)=O)N2C)cc1`, for which the GI50 with OVCAR-5, with MDA-MB-231, in the experiment with NCI-H226, with ACHN, with SF-539 and with HCT-116 was > 100 µM (inactive) each time. The GI50 is > 100 µM (inactive) in the experiment with A498; > 100 µM (inactive) in the experiment on OVCAR-3; 39.6 µM (inactive) with MOLT-4; > 100 µM (inactive) in the experiment with HOP-92; > 100 µM (inactive) in the experiment with SK-OV-3; > 100 µM (inactive) in the experiment with MDA-N. Further, the GI50 was > 100 µM (inactive) in the experiment on DU-145; > 100 µM (inactive) in the experiment on HT-29; 64.7 µM in the experiment on HCT-15; > 100 µM (inactive) with UACC-257; > 100 µM (inactive) in the experiment on NCI-H23; > 100 µM (inactive) in the experiment with RXF 393.

For `C=C(OC1C(C)=C2C(C1OC(=O)CCCCCCC)C(C)(OC(C)=O)CC(OC(=O)CCC)C1(O)C2OC(=O)C1(C)O)/C(C)=C/C` (centres undefined), the GI50 was 0.034 µM (active) in the experiment with OVCAR-5; < 0.0001 µM (active) with MDA-MB-231; 0.0641 µM (active) in the experiment with NCI-H226; 0.000585 µM (active) in the experiment with ACHN; 0.0125 µM (active) with SF-539; 0.0125 µM (active) in the experiment with A498. Besides, the GI50 with MOLT-4 was 0.0125 µM (active); in the experiment on HOP-92, 0.0125 µM (active); with SK-OV-3, 0.34 µM (active); in the experiment with MDA-N it was < 0.0001 µM (active); in the experiment on NCI-H522, 0.0125 µM (active); with DU-145, < 0.0001 µM (active). Besides, the GI50 is 0.0125 µM (active) in the experiment with HT-29; 0.0316 µM with HCT-15; 0.0125 µM (active) with UACC-257; 0.0125 µM (active) in the experiment on NCI-H23; 0.0125 µM (active) with RXF 393.

As for `N#CCCC1(CCC#N)CCCCCCCCC(CCC#N)(CCC#N)C(=O)C1=O`, the GI50 is > 100 µM (inactive) in the experiment on OVCAR-5; > 100 µM (inactive) in the experiment with NCI-H226; > 100 µM (inactive) in the experiment with ACHN; 91 µM (inactive) with Hs-578T; 44.6 µM (inactive) in the experiment on SF-539; > 100 µM (inactive) in the experiment on HCT-116. Moreover, the GI50 with OVCAR-3 is > 100 µM (inactive); in the experiment on HOP-92, > 100 µM (inactive); in the experiment on SK-OV-3 it was > 100 µM (inactive); with MDA-N, > 100 µM (inactive); in the experiment with NCI-H522 it was 5.81 µM (inactive); in the experiment with DU-145, > 100 µM (inactive). Further, the GI50 with HT-29 was > 100 µM (inactive); in the experiment on HCT-15, greater than 100 µM; in the experiment with UACC-257, 55.6 µM (inactive); in the experiment with NCI-H23, > 100 µM (inactive).

For `COC1C=COC2(C)Oc3c(C)c(O)c4c(O)c(c(C5SCCS5)c(O)c4c3C2=O)NC(=O)C(C)=C/C=C\C(C)C2OC(C)(C)OC(C2C)C(C)C(OC(C)=O)C1C` (centres undefined), the GI50 is 24.3 µM (inactive) in the experiment on OVCAR-5; 13.6 µM (inactive) in the experiment on MDA-MB-231; 6.71 µM (inactive) in the experiment on NCI-H226; 3.15 µM (inactive) in the experiment on ACHN; 15.8 µM (inactive) in the experiment on Hs-578T; 12.9 µM (inactive) with SF-539. Moreover, the GI50 in the experiment on HCT-116 is 5.05 µM (inactive); in the experiment with A498, 12.3 µM (inactive); with OVCAR-3 it was 4.78 µM (inactive); with MOLT-4 it was 3.83 µM (inactive); in the experiment with HOP-92 it was 5.55 µM (inactive); in the experiment on SK-OV-3, 17.1 µM (inactive). The GI50 with NCI-H522 was 5.02 µM (inactive); in the experiment on DU-145 it was 8.93 µM (inactive); in the experiment on HCT-15, 5.6 µM; in the experiment on UACC-257, 2.74 µM (inactive); in the experiment on NCI-H23 it was 6.44 µM (inactive); in the experiment on RXF 393, 7.21 µM (inactive).

On to `CC1(C)OCC(C2OC(OC(=O)c3ccc(C(F)(F)F)cc3)C3OC(C)(C)OC23)O1` (centres undefined), for which the GI50 with OVCAR-5 is > 77.4 µM (inactive); in the experiment with MDA-MB-231, 63 µM (inactive); in the experiment on NCI-H226, > 77.4 µM (inactive); in the experiment with ACHN, > 77.4 µM (inactive); with SF-539, > 77.4 µM (inactive); in the experiment with HCT-116, > 77.4 µM (inactive). For the same molecule, the GI50 was > 77.4 µM (inactive) in the experiment on A498; > 77.4 µM (inactive) in the experiment on OVCAR-3; 38 µM (inactive) with MOLT-4; > 77.4 µM (inactive) with SK-OV-3; > 77.4 µM (inactive) in the experiment on MDA-N; > 77.4 µM (inactive) in the experiment on NCI-H522. The GI50 in the experiment with DU-145 is > 77.4 µM (inactive); in the experiment with HT-29 it was 73.1 µM (inactive); in the experiment on HCT-15 it was greater than 77.4 µM; in the experiment on UACC-257, > 77.4 µM (inactive); in the experiment on NCI-H23, 58.3 µM (inactive); in the experiment with RXF 393, 28 µM (inactive).

For `CC(=O)O[C@@H]1O[Si](C(C)(C)C)(C(C)(C)C)[C@H](C)[C@H]1C`, the GI50 in the experiment with OVCAR-5 was > 100 µM (inactive); with MDA-MB-231, > 100 µM (inactive); in the experiment on NCI-H226, > 100 µM (inactive); in the experiment with ACHN it was > 100 µM (inactive); in the experiment on SF-539, > 100 µM (inactive); with HCT-116, 29.9 µM (inactive). The GI50 in the experiment with A498 was > 100 µM (inactive); in the experiment on OVCAR-3 it was 24 µM (inactive); with MOLT-4, 20.8 µM (inactive); in the experiment with SK-OV-3, > 100 µM (inactive); in the experiment with MDA-N, > 100 µM (inactive); with NCI-H522 it was 56.6 µM (inactive). Moreover, the GI50 with HT-29 was 18.6 µM (inactive); with HCT-15 it was 29.9 µM; in the experiment with UACC-257, > 100 µM (inactive); in the experiment with NCI-H23 it was > 100 µM (inactive).

For `O=C(O)c1ccccc1/C=C1\Cc2cc3c(cc2C1=O)CCC3`, the GI50 in the experiment on OVCAR-5 is 57.1 µM (inactive); in the experiment on MDA-MB-231 it was 20.3 µM (inactive); in the experiment with NCI-H226, 24 µM (inactive); in the experiment with ACHN, 34.4 µM (inactive); with SF-539, 29.1 µM (inactive); with HCT-116 it was 27.9 µM (inactive). The GI50 in the experiment with A498 is 30.8 µM (inactive); with OVCAR-3 it was 31.2 µM (inactive); in the experiment on MOLT-4, 17.4 µM (inactive); in the experiment with SK-OV-3, 36.2 µM (inactive); in the experiment on MDA-N it was 11.9 µM (inactive); in the experiment with NCI-H522, 18.9 µM (inactive). Moreover, the GI50 is 25.3 µM (inactive) in the experiment with DU-145; 19.2 µM (inactive) in the experiment with HT-29; 16.3 µM with HCT-15; 26.5 µM (inactive) in the experiment with UACC-257; 18.1 µM (inactive) with NCI-H23; 21.3 µM (inactive) with RXF 393.

For the molecule `O=C(Cc1cccs1)N[C@@H]1C(=O)N2C(C(=O)OC(c3ccccc3)c3ccccc3)=C(CO)CS[C@H]12`, the GI50 in the experiment with OVCAR-5 is > 100 µM (inactive); in the experiment on MDA-MB-231, > 100 µM (inactive); in the experiment with NCI-H226, 0.0283 µM (active); with ACHN, 91.8 µM (inactive); with SF-539, > 100 µM (inactive); with HCT-116 it was > 100 µM (inactive). Also, the GI50 with A498, with OVCAR-3, in the experiment on MOLT-4, with HOP-92, in the experiment on SK-OV-3 and in the experiment with MDA-N was > 100 µM (inactive) in each case. In addition, the GI50 is 16.8 µM (inactive) in the experiment on NCI-H522; > 100 µM (inactive) in the experiment on DU-145; 92.7 µM in the experiment with HCT-15; > 100 µM (inactive) in the experiment with UACC-257; 46 µM (inactive) in the experiment on NCI-H23; > 100 µM (inactive) with RXF 393.

These data come from ChEMBL document CHEMBL1201862, “PubChem BioAssay data set” (2004).
